The nature of the data set: Beaker Perhydrolysis Test (Sotax Dissolution Tester) of model detergent formulation containing the precursor material. The class given is physicochemical. The note with it: for peroxyacid yield: percent of the theoretically available weight of peracid. Here is the method:
For the purpose of the present invention, unrestrained dissolution conditions are defined as those existing in the Beaker Perhydrolysis Test as carried out using a Sotax Dissolution Tester Model AT6 supplied by Sotax AG CH-4008 BASEL Switzerland. This Apparatus comprises an array of polycarbonate beakers, each capable of holding 1 litre of water, supported in a thermostatically controlled water bath. Each beaker is provided with a paddle stirrer whose speed can be controlled.
Add 5ml potassium iodide solution to the first titration beaker. • 7- Take a 10ml aliquot from Sotax beaker No. 1 and discharge into the first titration beaker at t=1 minute. • 8- Add the second sample to Sotax beaker No.2 at t= 1 minute and add 5 ml potassium iodide to a second titration beaker. • 9- Titrate the first aliquot against 0.005 M sodium thiosulphate solution until the solution is first decolourised (The colour is slowly regenerated as the solution warms and the perhydrate reacts with the iodide). • 10- Take a 10 ml aliquot from Sotax beaker No.2 at t= 2 minutes and discharge into the second titration beaker and repeat step . • 11- Take further aliquots at the following times (t= minutes)
The aliquots from Beaker No. 1 at 1 minute and from Beaker No. 2 at 2 minutes constitutes replicates and the results are averaged to give a figure from which the % perhydrolysis is calculated.
Material from each example was then incorporated into a model detergent formulation having the composition in % by weight.
The four formulations were then subjected to a Beaker Perhydrolysis Test as hereinbefore described and gave the peroxyacid yields shown in Table 1. Results are given for 1, 3, 5 & 10 minutes elapsed time and are expressed in percent of the theoretically available weight of peracid.

The values below come from patent publication EP0791044B1, “HYDROPHOBIC PEROXYACID BLEACH PRECURSOR COMPOSITIONS STABILISED WITH A WATER SOLUBLE CARBOXYLIC ACID” (THE PROCTER & GAMBLE COMPANY, priority 1994, dated 1996).

`CCCCCCCCCC(=O)NCCCCCC(=O)Oc1ccc(S(=O)(=O)O)cc1` [C10 oxybenzenesulfonate (raw material), (6-decanamido-caproyl) oxybenzenesulfonate] came in with a peroxyacid yield (3 minutes from start of perhydrolysis, Temperature = 30°C, hard water (25° Clarck)) of 25%; a peroxyacid yield (5 minutes from start of perhydrolysis, Temperature = 30°C, hard water (25° Clarck)) of 31%; a peroxyacid yield (10 minutes from start of perhydrolysis, Temperature = 30°C, hard water (25° Clarck)) of 34%.
For “benzoyl caprolactam [3 (benzoyl caprolactam)]”, the perhydrolysis rate result (effect of agglomeration with citric acid versus raw material form, 40°C) is on record as “No such enhancement”. The peroxyacid yield is listed as 14% (1 minute from start of perhydrolysis, Temperature = 40°C, water 12° Clark); 37% (3 minutes from start of perhydrolysis, Temperature = 40°C, water 12° Clark); 52% (5 minutes from start of perhydrolysis, Temperature = 40°C, water 12° Clark); 71% (10 minutes from start of perhydrolysis, Temperature = 40°C, water 12° Clark).
